In patent publication US20100305053A1, “USE OF […] OF A DERIVATIVE THEREOF FOR THE PREVENTION AND/OR TREATMENT OF SLACKENED SKIN” (L'OREAL, priority 2007, published 2010):

Key:
collagen IV = test: Collagen IV immunolabeling (immunofluorescence) of skin sections after 24 weeks of dietary hesperidin; format: in vivo; settings: for Number of sections (out of 12) with medium and strong labeling of the DEJ / % of sections with medium and strong labeling of the DEJ: collagen IV; for Number of sections (out of 12) with medium and strong labeling of the DEJ: control group E: 6; for % of sections with medium and strong labeling of the DEJ: control group E: 50
Protocol: (§1) The study was carried out on elderly, healthy individuals subjected, for 24 weeks, to a diet optionally comprising hesperidin.
(§2) The first group of individuals (group E) is a control group subjected to a standard diet free of hesperidin.
(§3) The second group of individuals (group F) is a group subjected to a diet comprising 0.1% by weight of hesperidin relative to the standard diet, which corresponds to 50 mg of hesperidin per kg of body weight of the individual and per day.
(§4) The third group of individuals (group G) is a group subjected to a standard diet comprising 0.5% by weight of hesperidin relative to the standard diet, which corresponds to 250 mg of hesperidin per kg of body weight of the individual and per day.
(§5) Skin samples were taken and analyzed in order to study, by immunofluorescence, the expression of the collagen IV and collagen VII skin markers characteristic of the dermoepidermal junction.
The immunolabeling of collagen IV is carried out by immunohistochemistry with an “anticollagen type IV polyclonal” primary antibody [Rockland (sold by Tebu-Bio), dilution 1/50] and an “anti-rabbit FITC” secondary antibody [Santa Cruz, dilution 1/100].
The labeling was carried out on frozen sections 5 μm thick derived from skin samples.
The slides were recovered in PBS for five minutes, incubated with the primary antibody for one hour at ambient temperature in the dark, rinsed in PBS twice for five minutes, then incubated with the secondary antibody for one hour at ambient temperature in the dark, and then again rinsed in PBS twice for five minutes.
The slides were then mounted with Vectashield (Vector) containing DAPI ([…]), and then covered with a coverslip.

collagen VII = test: Collagen VII immunolabeling (immunofluorescence) of skin sections after 24 weeks of dietary hesperidin; format: in vivo; settings: for Number of sections (out of 12) with labeling of the DEJ and labeling in the papillary dermis / % of sections with labeling of the DEJ and labeling in the papillary dermis: collagen VII; for Number of sections (out of 12) with labeling of the DEJ and labeling in the papillary dermis: control group E: 3; for % of sections with labeling of the DEJ and labeling in the papillary dermis: control group E: 25
Protocol: as §1, §2, §3, §4, §5
The collagen VII immunolabeling is carried out as indicated previously, but using “anticollagen type VII polyclonal” [EUROMEDEX (sold by Chemicon), dilution 1/500] as primary antibody and “anti-mouse Ig FITC” [Dake, dilution 1/100] as secondary antibody.

[1] = group F, diet with 0.1% by weight hesperidin (50 mg/kg/day), 24 weeks
[2] = group G, diet with 0.5% by weight hesperidin (250 mg/kg/day), 24 weeks

COc1ccc([C@@H]2CC(=O)c3c(O)cc(O[C@@H]4O[C@H](CO[C@@H]5O[C@@H](C)[C@H](O)[C@@H](O)[C@H]5O)[C@@H](O)[C@H](O)[C@H]4O)cc3O2)cc1O [Hesperidin, (S)-7-[[6-O-(6-deoxy-α-L-mannopyranosyl)-β-D-glucopyranosyl]oxy]-2,3-dihydro-5-hydroxy-2-(3-hydroxy-4-methoxyphenyl)-4H-1-benzopyran-4-one]
Number of sections (out of 12) with medium and strong labeling of the DEJ (collagen IV; [1]): 7 | % of sections with medium and strong labeling of the DEJ (collagen IV; [1]): 58% | Number of sections (out of 12) with medium and strong labeling of the DEJ (collagen IV; [2]): 12 | % of sections with medium and strong labeling of the DEJ (collagen IV; [2]): 100% | Effect on collagen network in the dermal tissue and collagen IV expression (conclusion) (collagen IV; oral, diet, 24 weeks): increase in the expression of the collagen IV | Expression of collagen IV in the basal lamina compared with the control (collagen IV; the two treated groups (F and G), FIG. 1): greater expression of collagen IV | Number of sections (out of 12) with labeling of the DEJ and labeling in the papillary dermis (collagen VII; [1]): 6 | % of sections with labeling of the DEJ and labeling in the papillary dermis (collagen VII; [1]): 50% | Number of sections (out of 12) with labeling of the DEJ and labeling in the papillary dermis (collagen VII; [2]): 11 | % of sections with labeling of the DEJ and labeling in the papillary dermis (collagen VII; [2]): 92% | Collagen VII fluorescence intensity at the DEJ and in the papillary dermis (collagen VII; more particularly group G (0.5% hesperidin diet), FIG. 2): increase in fluorescence intensity | Effect on collagen network in the dermal tissue and collagen VII expression (conclusion) (collagen VII; oral, diet, 24 weeks): increase in the expression of collagen VII
